US12502385B2, “Analogs of deutetrabenazine, their preparation and use” (Auspex Pharmaceuticals, Inc., priority 2017, dated 2025)
Several values for one entry are separate records, joined by “and”; a condition that tells them apart may be missing. Equal values may be shown once.

Legend:
mice = conditions: mouse, in vivo
Protocol: A 3-day GLP mouse micronucleus study was conducted with Compound 1. That study included a GLP Bacterial Reverse Mutation Assay of deutetrabenazine with Compound 1. That study also included an in vitro Chromosome Aberration Test in Cultured Human Peripheral Blood Lymphocytes. In the study, the highest level of 80 mg/kg/day of deutetrabenazine was not genotoxic in males and females. That dose level was predicted to provide 2.77 mg Compound 1/kg/day in mice, which approximates to a human equivalent dose of 0.23 mg/kg.

[1] = 90-day GLP general rat toxicology study
Protocol: A 90-day GLP general rat toxicology study was conducted with Compound 1.

SMILES	Compound 1 dose provided at the non-genotoxic deutetrabenazine level (mice; both, 3 day)	human equivalent dose of Compound 1 at the non-genotoxic level (mice; both, 3 day)	NOAEL at 90 day ([1]; in vivo)	genotoxicity (mice; 80 mg/kg/day)	NOAEL at 90 day ([1]; rat)
[2H]C([2H])([2H])Oc1cc2c(cc1OC([2H])([2H])[2H])[C@@H]1CC(=O)[C@H](CC(C)C)CN1CC2 (racemic) [Compound 1, (RS, SR)-1,3,4,6,7,11b-hexahydro-9,10-di(methoxy-d3)-3-(2-methylpropyl)-2H-benzo[a]quinolizin-2-one]	2.77 mg/kg/day	~0.23 mg/kg	0.346 mg/kg/day and ~0.056 mg/kg		
[2H]C([2H])([2H])Oc1cc2c(cc1OC([2H])([2H])[2H])C1CC(=O)C(CC(C)C)CN1CC2 (centres unmarked) [deutetrabenazine, d6-Tetrabenazine]				not genotoxic	10 mg/kg/day
